Results reported in patent publication US20250241891A1, “TREATMENT OF ANXIETY” (GH RESEARCH IRELAND LIMITED, priority 2022, published 2025).

Test system: patients with postpartum depression (PPD)
Test: Clinical trial of inhaled 5-MeO-DMT in postpartum depression (MADRS, BPRS, BIMF, PES, safety)
Method: The single-arm, open-label clinical trial will involve 15 adult female patients with clinically diagnosed postpartum depression (PPD).
The second dose (12 mg) will only be administered if: • a. […] The 6 mg dose was safe and well-tolerated according to the investigator, • c. Any psychoactive effects (PsE) of the prior dose have subsided, and • d. Pre-dose vital parameters and forced expiratory volume in one second (FEV1) are in normal range, or if outside of the normal range, are not clinically significant according to the investigator. • 3. Similarly, a third dose (18 mg) will only be administered if: • a. […] The 12 mg dose was safe and well-tolerated according to the investigator, and • c. Any PsE of the prior dose have subsided, and • d. Pre-dose vital parameters and forced expiratory volume in one second (FEV1) are in normal range, or if outside of the normal range, are not clinically significant according to the investigator.
The patients will be assessed for a peak psychedelic experience (based on a patient-scored visual analogue scale, the PE scale), sedation, and other endpoints after dosing. Follow-up visits are planned for Day 1, and Day 7 after the dosing day.
The following criteria must be met by all patients considered for clinical trial participation: • 1. Is female and in the age range between 18 and 45 years (inclusive) at screening. • 2. Has a body mass index (BMI) in the range of 18.5 and 35 kg/m^2 (inclusive) at screening. • 3. Meets the trial criteria for PPD as assessed by a trial psychiatrist or registered psychologist: • a. Diagnosis of Major Depressive Disorder without psychotic features, confirmed by the Mini-International Neuropsychiatric Interview (MINI), with peri-partum onset that began no earlier than gestation and no later than the first 4 weeks postpartum. • b. Has a Montgomery-Åsberg Depression Rating Scale (MADRS) total score of equal to or greater than 28 at screening and pre-dose on Day 0. • 6. […] Patients must have a negative pregnancy test at screening and on the pre-test day (Day −1). • 5. Is willing to delay start of other antidepressant or anxiety medication until after the end of the trial at Day 7 and agrees to keep any psychotherapy unchanged during the trial.
A potential patient who meets any of the following key exclusion criteria will be excluded from participation in this trial: • 1. Has, based on history, psychiatric assessment, and evaluation of the MINI, a current or prior diagnosis of bipolar disorder, a manic or hypomanic episode, a psychotic disorder, Major Depressive Disorder (MDD) or other mood disorder with psychotic features, obsessive compulsive disorder, post-traumatic stress disorder (PTSD), autism spectrum disorder, borderline personality disorder, schizophrenia, delusional disorder, paranoid personality disorder, schizoaffective disorder, clinically significant intellectual disability, or any other psychiatric comorbidity that renders the patient unsuitable for the trial according to the investigator's judgment. • 2. Has one or more first or second degree relatives with a current or previously diagnosed bipolar disorder, psychotic disorder or other mood disorder (including MDD) with psychotic features. • 3. Is in the judgement of a trial psychiatrist or registered psychologist, at significant risk for suicide based on history, psychiatric assessment, and evaluation of suicidal ideation and suicidal behaviour based on the Columbia-Suicide Severity Rating Scale (C-SSRS). • 4. Has taken anti-depressive medication within 14 days or 5 half-lives (whichever is longer) prior to dosing (exception: within the last 5 weeks in the case of fluoxetine). • 5.

[1] = PPD n=1, IDR 6+12 mg inhaled, 2 hr, baseline 0
[2] = PPD n=1, IDR 6+12 mg inhaled, 2 hr, baseline 3
[3] = PPD n=1, IDR 6+12 mg inhaled, 2 hr, baseline 4
[4] = PPD n=1, IDR 6+12 mg inhaled, 2 hr, baseline 5
[5] = PPD n=1, IDR 6+12 mg inhaled, Day 7, Day 0 score 5
[6] = PPD n=1, IDR 6+12 mg inhaled, Day 7, Day 0 score 6
[7] = PPD n=1, IDR 6+12 mg inhaled, Day 7 vs Day 0
[8] = PPD n=1, IDR 6+12 mg inhaled, day 1, baseline 0
[9] = PPD n=1, IDR 6+12 mg inhaled, day 1, baseline 1
[10] = PPD n=1, IDR 6+12 mg inhaled, day 1, baseline 2
[11] = PPD n=1, IDR 6+12 mg inhaled, day 1, baseline 3
[12] = PPD n=1, IDR 6+12 mg inhaled, day 1, baseline 4
[13] = PPD n=1, IDR 6+12 mg inhaled, day 1, baseline 5

SMILES: COc1ccc2[nH]cc(CCN(C)C)c2c1 [5-MeO-DMT]
- tolerability of the inhalation procedure (PPD n=1): well tolerated with no inhalation-related adverse events
- MADRS remission criteria (MADRS total score equal or less than 10) (PPD n=1, IDR 6+12 mg inhaled): fulfilled
- MADRS response criteria (at least 50% improvement from baseline) (PPD n=1, IDR 6+12 mg inhaled): fulfilled
- reported adverse events (cramping left abdominal pain and headache, Day 0) (PPD n=1, IDR 6+12 mg inhaled): mild, short-lasting and resolved spontaneously
- time to clinical response after administration (PPD n=1, IDR 6+12 mg inhaled): ≤ 2 h
- durability of clinical response (PPD n=1, IDR 6+12 mg inhaled given on one day): sustained over the 7-day follow-up period
- MADRS Concentration Difficulties improvement [1]: 0
- MADRS Concentration Difficulties score [1]: 0
- MADRS Reduced appetite improvement [1]: 0
- MADRS Reduced appetite score [1]: 0
- MADRS Suicidal Thoughts improvement [1]: 0
- MADRS Suicidal Thoughts score [1]: 0
- MADRS Inability to Feel improvement [2]: 3
- MADRS Inability to Feel score [2]: 0
- MADRS Lassitude improvement [2]: 3
- MADRS Lassitude score [2]: 0
- MADRS Pessimistic Thoughts improvement [3]: 4
- MADRS Pessimistic Thoughts score [3]: 0
- MADRS Reported sadness improvement [3]: 4
- MADRS Reported sadness score [3]: 0
- MADRS Apparent sadness improvement [4]: 5
- MADRS Apparent sadness score [4]: 0
- MADRS Inner Tension improvement [4]: 5
- MADRS Inner Tension score [4]: 0
- MADRS Reduced Sleep improvement [4]: 0
- MADRS Reduced Sleep score [4]: 5
- BIMF item 18 score: Anxiety or worry often interferes with my mothering ability (PPD n=1, IDR 6+12 mg inhaled, Day 7, Day 0 score 2): 5
- BIMF item 16 score: I worry about how other people judge me (as a mother) (PPD n=1, IDR 6+12 mg inhaled, Day 7, Day 0 score 3): 5
- BIMF item 13 score: I am taking good care of my physical needs (eating, showering, etc) (PPD n=1, IDR 6+12 mg inhaled, Day 7, Day 0 score 4): 5
- BIMF item 10 score: I trust my own feelings (instincts) when it comes to taking care of my baby [5]: 6
- BIMF item 17 score: I am able to take care of my baby and my other responsibilities [5]: 5
- BIMF item 3 score: I am comfortable with the way I've chosen to feed my baby (either bottle or breast, or both) [6]: 6
- BIMF item 6 score: There are people in my life that I can trust to care for my baby when I need a break [6]: 6
- BIMF item 12 score: I am taking good care of my baby's physical needs (feedings, changing diapers, doctor's appointments) [6]: 6
- BIMF item 14 score: I make good decisions about my baby's health and well being [6]: 6
- BIMF functional domain Adjustment Δ (Day 7) [7]: 1
- BIMF functional domain Infant Care Δ (Day 7) [7]: 0
- BIMF functional domain Management Δ (Day 7) [7]: 5
- BIMF functional domain Mother-Child Interaction Δ (Day 7) [7]: 2
- BIMF functional domain Psychological Well-being Δ (Day 7) [7]: 9
- BIMF functional domain Self Care Δ (Day 7) [7]: 4
- BIMF functional domain Social Support Δ (Day 7) [7]: 1
- BIMF item 1 Δ (Day 7): I am a good mother [7]: 0
- BIMF item 2 Δ (Day 7): I feel rested [7]: 2
- BIMF item 3 Δ (Day 7): I am comfortable with the way I've chosen to feed my baby (either bottle or breast, or both) [7]: 0
- BIMF item 4 Δ (Day 7): My baby and I understand each other [7]: 0
- BIMF item 5 Δ (Day 7): I am able to relax and enjoy time with my baby [7]: 1
- BIMF item 6 Δ (Day 7): There are people in my life that I can trust to care for my baby when I need a break [7]: 0
- BIMF item 8 Δ (Day 7): I am getting enough adult interaction [7]: 0
- BIMF item 9 Δ (Day 7): I am getting enough encouragement from other people [7]: 1
- BIMF item 10 Δ (Day 7): I trust my own feelings (instincts) when it comes to taking care of my baby [7]: 1
- BIMF item 11 Δ (Day 7): I take a little time each week to do something for myself [7]: 1
- BIMF item 12 Δ (Day 7): I am taking good care of my baby's physical needs (feedings, changing diapers, doctor's appointments) [7]: 0
- BIMF item 13 Δ (Day 7): I am taking good care of my physical needs (eating, showering, etc) [7]: 1
- BIMF item 14 Δ (Day 7): I make good decisions about my baby's health and well being [7]: 0
- BIMF item 15 Δ (Day 7): My baby and I are getting into a routine [7]: 1
- BIMF item 16 Δ (Day 7): I worry about how other people judge me (as a mother) [7]: 2
- BIMF item 17 Δ (Day 7): I am able to take care of my baby and my other responsibilities [7]: 0
- BIMF item 18 Δ (Day 7): Anxiety or worry often interferes with my mothering ability [7]: 3
- BIMF item 19 Δ (Day 7): As time goes on, I am getting better at taking care of my baby [7]: 1
- BIMF item 20 Δ (Day 7): I am satisfied with the job I am doing as a new mother [7]: −1
- MADRS Concentration Difficulties improvement [8]: 0
- MADRS Concentration Difficulties score [8]: 0
- MADRS Reduced appetite improvement [8]: 0
- MADRS Reduced appetite score [8]: 0
- MADRS Suicidal Thoughts improvement [8]: 0
- MADRS Suicidal Thoughts score [8]: 0
- BPRS Blunted Affect score [9]: 1
- BPRS Blunted affect improvement [9]: 0
- BPRS Conceptual disorganization improvement [9]: 0
- BPRS Conceptual disorganization score [9]: 1
- BPRS Disorientation improvement [9]: 0
- BPRS Disorientation score [9]: 1
- BPRS Grandiosity improvement [9]: 0
- BPRS Grandiosity score [9]: 1
- BPRS Hallucinatory behaviour improvement [9]: 0
- BPRS Hallucinatory behaviour score [9]: 1
- BPRS Hostility improvement [9]: 0
- BPRS Hostility score [9]: 1
- BPRS Mannerisms and Posturing improvement [9]: 0
- BPRS Mannerisms and Posturing score [9]: 1
- BPRS Motor retardation improvement [9]: 0
- BPRS Motor retardation score [9]: 1
- BPRS Suspiciousness improvement [9]: 0
- BPRS Suspiciousness score [9]: 1
- BPRS Uncooperativeness improvement [9]: 0
- BPRS Uncooperativeness score [9]: 1
- BPRS Unusual Thought Content improvement [9]: 0
- BPRS Unusual Thought Content score [9]: 1
- BPRS Excitement improvement [10]: 1
- BPRS Excitement score [10]: 1
- MADRS Inability to Feel improvement [11]: 3
- MADRS Inability to Feel score [11]: 0
- MADRS Lassitude improvement [11]: 3
- MADRS Pessimistic Thoughts improvement [12]: 4
- MADRS Pessimistic Thoughts score [12]: 0
- MADRS Reported sadness improvement [12]: 4
- MADRS Reported sadness score [12]: 0
- BPRS Emotional Withdrawal score [13]: 1
- BPRS Emotional withdrawal improvement [13]: 4
- MADRS Apparent sadness improvement [13]: 5
- MADRS Apparent sadness score [13]: 0
- MADRS Inner Tension improvement [13]: 5
- MADRS Inner Tension score [13]: 0
